Results: ChEMBL document CHEMBL4330129 (Bioorg Med Chem, 2019)
Values after ≈ are worked out from the molar mass of the structure shown. Active and inactive are the calls of the source. No cut-off for these calls is given here.

What was measured:
[1] = Activation of Keap1/Cul3/Nrf2 in human BEAS2B cells assessed as increase in NQO1 levels measured after 48 hrs; type: cell-based; settings: BEAS-2B
[2] = target: BACH1/MafK (Homo sapiens, UniProt O14867+O60675); assay: Inhibition of Bach1-Mafk interaction (unknown origin) by luciferase reporter gene based enzyme fragment complementation assay; type: protein assay
[3] = test system: Kelch-like ECH-associated protein 1 (Homo sapiens), Q14145 [C151S]; assay: Binding affinity to human N-terminal His6-tagged Keap1 C151S mutant (35 to 182 residues) expressed in baculovirus infected Sf9 insect cells assessed as cysteine-compound adduct formation at 15-fold molar excess measured after 1 hr by RP-LC/MS/MS analysis
[4] = target: Kelch-like ECH-associated protein 1 (Homo sapiens) (UniProt Q14145); assay: Binding affinity to wild-type human N-terminal His6-tagged Keap1 (35 to 178 residues) expressed in baculovirus infected Sf9 insect cells assessed as cysteine-compound adduct formation at 15-fold molar excess measured after 1 hr by RP-LC/MS/MS analysis
[5] = Binding affinity to FLAG/His-tagged Keap1 (unknown origin)/biotinylated full-length FLAG/His/Tev/Avi-tagged Cul3 (unknown origin) expressed in baculovirus infected Sf9 insect cells measured after 1 hr by TR-FRET assay; design: species or system Homo sapiens
[6] = Kinetic solubility of the compound at pH 7.4 by CLND method; type: physicochemical; settings: buffer, read-out: Kinetic_solubility
[7] = target: Keap1/Nrf2 (Homo sapiens, UniProt Q14145+Q16236); assay: Binding affinity to FLAG/His-tagged Keap1 (unknown origin)/biotinylated full-length FLAG/His/Tev/Avi-tagged NRF2 (unknown origin) expressed in baculovirus infected Sf9 insect cells measured after 1 hr by TR-FRET assay
[8] = species on record: Homo sapiens; assay: Activation of Keap1/Cul3/Nrf2 in NHBE cells assessed as induction of HO-1 gene expression at 10 uM after 24 hrs by RT-PCR analysis relative to SFN; type: cell-based
[9] = Lipophilicity, log D of the compound at pH 7.4 by chromatographic method; type: physicochemical; settings: buffer

Chain of Keap1/Nrf2 (Q16236 whole entry): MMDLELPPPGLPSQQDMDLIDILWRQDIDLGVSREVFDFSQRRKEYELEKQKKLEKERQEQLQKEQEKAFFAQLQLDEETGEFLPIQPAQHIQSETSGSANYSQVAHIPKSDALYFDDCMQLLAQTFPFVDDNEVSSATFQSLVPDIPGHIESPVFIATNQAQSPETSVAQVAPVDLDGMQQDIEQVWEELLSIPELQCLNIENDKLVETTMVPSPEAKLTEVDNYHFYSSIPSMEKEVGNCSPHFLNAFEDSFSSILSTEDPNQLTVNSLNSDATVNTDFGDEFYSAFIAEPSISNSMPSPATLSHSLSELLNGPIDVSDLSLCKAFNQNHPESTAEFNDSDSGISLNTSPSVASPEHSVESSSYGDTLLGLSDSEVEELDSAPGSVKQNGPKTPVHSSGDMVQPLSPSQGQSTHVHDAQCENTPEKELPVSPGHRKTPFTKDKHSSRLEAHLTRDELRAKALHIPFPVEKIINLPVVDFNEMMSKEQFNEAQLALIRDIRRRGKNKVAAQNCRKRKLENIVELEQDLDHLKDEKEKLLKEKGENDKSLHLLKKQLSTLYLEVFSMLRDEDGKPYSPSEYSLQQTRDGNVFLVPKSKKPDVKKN
Chain of Keap1/Nrf2 (Q14145 whole entry): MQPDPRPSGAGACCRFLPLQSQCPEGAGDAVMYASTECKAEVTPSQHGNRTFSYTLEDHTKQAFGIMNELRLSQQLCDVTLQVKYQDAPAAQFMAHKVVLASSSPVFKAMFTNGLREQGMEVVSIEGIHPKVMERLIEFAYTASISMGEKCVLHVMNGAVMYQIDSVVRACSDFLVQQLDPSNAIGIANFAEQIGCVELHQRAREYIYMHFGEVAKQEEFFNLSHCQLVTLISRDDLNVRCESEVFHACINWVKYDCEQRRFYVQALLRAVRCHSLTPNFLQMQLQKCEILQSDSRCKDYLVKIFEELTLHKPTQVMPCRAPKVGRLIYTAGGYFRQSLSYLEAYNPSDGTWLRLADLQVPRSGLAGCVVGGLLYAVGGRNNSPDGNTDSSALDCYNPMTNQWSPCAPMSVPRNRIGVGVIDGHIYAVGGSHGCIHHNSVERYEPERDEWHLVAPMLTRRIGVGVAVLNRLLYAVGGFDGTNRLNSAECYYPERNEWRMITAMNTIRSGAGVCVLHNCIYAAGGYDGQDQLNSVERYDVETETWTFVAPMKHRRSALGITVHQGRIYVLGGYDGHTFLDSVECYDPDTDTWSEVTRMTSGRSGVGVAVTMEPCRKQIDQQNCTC
Chain of BACH1/MafK (O60675 whole entry, the tested form may be a part): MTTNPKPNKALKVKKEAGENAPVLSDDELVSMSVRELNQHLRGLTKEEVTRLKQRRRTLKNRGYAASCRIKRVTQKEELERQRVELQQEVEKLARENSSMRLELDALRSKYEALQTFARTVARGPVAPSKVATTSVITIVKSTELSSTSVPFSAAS
Chain of BACH1/MafK (O14867 whole entry, the tested form may be a part): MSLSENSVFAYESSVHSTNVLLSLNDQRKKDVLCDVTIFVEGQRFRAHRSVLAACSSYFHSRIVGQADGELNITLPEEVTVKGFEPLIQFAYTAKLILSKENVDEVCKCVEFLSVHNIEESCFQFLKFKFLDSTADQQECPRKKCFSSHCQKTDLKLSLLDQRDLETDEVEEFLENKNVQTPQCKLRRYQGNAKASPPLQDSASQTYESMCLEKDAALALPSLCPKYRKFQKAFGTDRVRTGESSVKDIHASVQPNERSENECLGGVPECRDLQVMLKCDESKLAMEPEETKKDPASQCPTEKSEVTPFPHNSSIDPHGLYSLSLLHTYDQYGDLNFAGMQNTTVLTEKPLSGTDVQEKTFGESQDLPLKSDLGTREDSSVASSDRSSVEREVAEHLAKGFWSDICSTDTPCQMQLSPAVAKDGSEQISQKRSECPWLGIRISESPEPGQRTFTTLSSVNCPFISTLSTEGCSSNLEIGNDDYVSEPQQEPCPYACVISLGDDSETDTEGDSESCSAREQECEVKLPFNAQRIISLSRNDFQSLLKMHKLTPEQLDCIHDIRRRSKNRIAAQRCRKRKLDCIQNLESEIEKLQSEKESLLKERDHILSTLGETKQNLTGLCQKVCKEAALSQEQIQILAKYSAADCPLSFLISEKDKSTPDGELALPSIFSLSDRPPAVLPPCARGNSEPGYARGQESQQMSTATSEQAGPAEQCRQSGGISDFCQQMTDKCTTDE
Chain of Kelch-like ECH-associated protein 1 (Homo sapiens) (Q14145 whole entry, the tested form may be a part): as the sequence (Q14145 whole entry) above
Chain of Kelch-like ECH-associated protein 1 (Homo sapiens), Q14145 [C151S] (Q14145 whole entry C151S, the tested form may be a part): as the sequence (Q14145 whole entry) above, with C151S counted along it

| SMILES | EC50 [1] [µM] | IC50 [2] [µM] | Activity [3] | Activity [4] | pIC50 [5] | solubility kinetic [6] [µM] | IC50 [7] [µM] | fold change (FC) [8] | chromatographic logD [9] |
| --- | --- | --- | --- | --- | --- | --- | --- | --- | --- |
| C[S+]([O-])CCCCN=C=S (racemic) [SULFORAPHANE] | 1.58 to 2.09 | 15.8 | Active | Active | < 4 | 271 (≈ 48 µg/mL) | – | – | – |
| CC(=O)N[C@@H](CSC(=S)NCCCN(C)c1c(N(C)C)c(=O)c1=O)C(=O)O | 1.58 | – | – | – | – | – | – | – | – |
| C[S+]([O-])CCCCNC(=S)SC[C@H](NC(=O)CC[C@H](N)C(=O)O)C(=O)NCC(=O)O (stereo partly specified) | 1.58 | – | – | – | < 4 | ≥ 290 | > 100 | 5.8 | -0.75 |
| CC(=O)N[C@@H](CSC(=S)NCCCC[S+](C)[O-])C(=O)O (stereo partly specified) | 1.58 | – | – | – | < 4 | ≥ 357 | > 100 | 5.8 | -0.67 |
| C[S+]([O-])CCCN=C=S (stereo unspecified) | – | – | – | – | < 4 | 331 (≈ 54 µg/mL) | > 100 | 0.47 | 0.85 |
| CC(C)(C)OC(=O)N1CCC(SC(=S)NCCCCNC(=O)NC2CCCC2)CC1 | – | – | – | – | 4.4 | 53 (≈ 24.3 µg/mL) | > 100 | 27.3 | 6.1 |
| COC(=O)[C@H](CSC(=S)NCCCC[S+](C)[O-])NC(C)=O (stereo partly specified) | – | – | – | – | < 4 | ≥ 510 | > 100 | 0.85 | 1.04 |
| Cl.O=C(NCCCCNC(=S)SC1CCNCC1)Nc1ccncc1 | – | – | – | – | 4.7 | 281 | 50.1 | 25.8 | 0.49 |
| CC(C)(C)OC(=O)N1CCC(SC(=O)NCCCCNC(=S)SC2CCN(C(=O)OC(C)(C)C)CC2)CC1 | – | – | – | – | < 4 | 9 (≈ 5.32 µg/mL) | > 100 | 4.08 | 7.89 |
| CN(C)c1c(N(C)CCCNC(=S)SC[C@H](NC(=O)CC[C@H](N)C(=O)O)C(=O)NCC(=O)O)c(=O)c1=O | 1.58 | – | – | – | – | – | – | – | – |
| O=C(O)C(F)(F)F.[O-][S+](CCCCN=C=S)CCN1CCOCC1 (stereo unspecified) | – | – | – | – | < 4 | 81 | > 100 | 0.16 | 1.91 |
| Cc1ccccc1S(=O)(=O)CCCCN=C=S | – | – | – | – | 5 | 261 (≈ 70.3 µg/mL) | 31.6 | 0.67 | 5.52 |
| CN1CCC(SC(=S)NCCCCNC(=O)OCc2ccccc2Cl)CC1 | – | – | – | – | 5.3 | 280 (≈ 120 µg/mL) | 3.98 | 6.26 | 4.06 |
| O=C(NCCCCN=C=S)c1ccno1 | – | – | – | – | 4.2 | ≥ 473 | 63.1 | 2.65 | 3.27 |
| CN1CCC(SC(=S)NCCCCNC(=O)Oc2ccccc2)CC1 | – | – | – | – | 4.8 | ≥ 410 | 25.1 | 5.52 | 0.9 |
| CC(C)(C)OC(=O)N1CCC(SC(=O)NCCCCN=C=S)CC1 | – | – | – | – | 5.1 | 77 (≈ 28.8 µg/mL) | 12.6 | 4.01 | 6.72 |
| O=C(NCCCCN=C=S)NC1CCCC1 | – | – | – | – | 4.4 | 419 (≈ 101 µg/mL) | 50.1 | 2.66 | 4.1 |
| CC(C)(C)OC(=O)N1CCC(SC(=S)NCCCCNC(=O)OCc2ccccc2Cl)CC1 | – | – | – | – | 4.8 | 2 (≈ 1.03 µg/mL) | 2.51 | 40.3 | 7.72 |
| S=C=NCCN1CCSCC1 | – | – | – | – | < 4 | ≥ 367 | > 100 | 0.21 | 4.93 |
| [O-][S+](CCCCN=C=S)c1ccncc1 (stereo unspecified) | – | – | – | – | 4.4 | 201 to 224 (≈ 48.3 to 53.8 µg/mL) | 15.8 to 25.1 | 15.8 to 15.9 | 2.34 to 3.5 |
| CCCCNCCSC(=S)NCCCC[S+](C)[O-] (stereo unspecified) | – | – | – | – | < 4 | ≥ 420 | > 100 | 0.08 | 4.34 |
| O=C(NCCCCN=C=S)Nc1ccc2c(c1)OCO2 | – | – | – | – | 5 | 42 (≈ 12.3 µg/mL) | 6.31 | 10.5 | 4.25 |
| O=C(NCCCCN=C=S)Nc1cccnc1 | – | – | – | – | 4.5 | ≥ 428 | 39.8 | 13.6 | 2.79 |
| CN(C)CCS(=O)(=O)CCCCN=C=S | – | – | – | – | 4.4 | 376 (≈ 94.1 µg/mL) | > 100 | 3.25 | 2.84 |
| C[S+]([O-])CCCCNC(=S)SC1CCNCC1.O=C(O)C(F)(F)F (stereo unspecified) | – | – | – | – | < 4 | 255 | > 100 | 0.34 | 0.22 |
| O=S(=O)(CCCCN=C=S)CCN1CCOCC1 | – | – | – | – | < 4 | 273 (≈ 79.8 µg/mL) | > 100 | 0.22 | 2.93 |
| O=S(=O)(CCCCN=C=S)c1ccccn1 | – | – | – | – | 4.3 | ≥ 331 | 31.6 | 2.24 | 3.85 |
| COC(=O)[C@]12CCC(C)(C)C[C@H]1[C@H]1C(=O)C=C3[C@@]4(C)C=C(C#N)C(=O)C(C)(C)[C@@H]4CC[C@@]3(C)[C@]1(C)CC2 [BARDOXOLONE METHYL] | 0.00871 | – | – | – | – | – | – | – | – |
| O=C(NCCCCN=C=S)c1ccncc1 | – | – | – | – | 4.4 | ≥ 358 | > 100 | 0.93 | 2.86 |
